From PMC9516332 (Frontiers in Oncology, 2022)
Where two headings read alike, the source gives them in different places.

Columns and labels:
Test in all cases: Kinase panel profiling at 1 µmol/L (MSA or IMAP), percentage inhibition
Type in all cases: biochemical
[1] = molecular target: panel of 255 wild-type kinases (Homo sapiens, UniProt O00311); settings: CDC7/ASK kinase assay; 1 µmol/L single concentration; read-out: %-inhibition CDC7/ASK
[2] = molecular target: T1, panel of 255 wild-type kinases (Homo sapiens, UniProt O14965); settings: 1 µmol/L single concentration
T1 sequence (O14965 1-403): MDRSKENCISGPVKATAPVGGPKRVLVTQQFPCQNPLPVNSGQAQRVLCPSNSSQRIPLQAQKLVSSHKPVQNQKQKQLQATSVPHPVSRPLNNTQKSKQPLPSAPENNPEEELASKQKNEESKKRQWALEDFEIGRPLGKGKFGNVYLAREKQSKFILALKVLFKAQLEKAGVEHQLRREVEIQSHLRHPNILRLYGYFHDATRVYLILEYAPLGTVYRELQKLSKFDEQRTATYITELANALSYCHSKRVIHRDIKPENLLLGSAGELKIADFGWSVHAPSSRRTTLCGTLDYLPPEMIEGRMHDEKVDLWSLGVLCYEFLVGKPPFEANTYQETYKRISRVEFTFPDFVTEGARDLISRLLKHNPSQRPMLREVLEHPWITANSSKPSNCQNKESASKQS

[3] = molecular target: panel of 255 wild-type kinases (Homo sapiens, UniProt P00533); settings: kinase EGFR; 1 µmol/L single concentration; read-out: %-inhibition at 1 µmol/L, EGFR
[4] = molecular target: panel of 255 wild-type kinases (Homo sapiens, UniProt P07332); settings: kinase FES; 1 µmol/L single concentration; read-out: %-inhibition at 1 µmol/L, FES
[5] = molecular target: panel of 255 wild-type kinases (Homo sapiens, UniProt P07947); settings: kinase YES; 1 µmol/L single concentration; read-out: %-inhibition at 1 µmol/L, YES
[6] = molecular target: panel of 255 wild-type kinases (Homo sapiens, UniProt P07949); settings: kinase RET; 1 µmol/L single concentration; read-out: %-inhibition at 1 µmol/L, RET
[7] = molecular target: T2, panel of 255 wild-type kinases (Homo sapiens, UniProt P42681); settings: kinase TXK; 1 µmol/L single concentration; read-out: %-inhibition at 1 µmol/L, TXK
T2 sequence (P42681 1-527): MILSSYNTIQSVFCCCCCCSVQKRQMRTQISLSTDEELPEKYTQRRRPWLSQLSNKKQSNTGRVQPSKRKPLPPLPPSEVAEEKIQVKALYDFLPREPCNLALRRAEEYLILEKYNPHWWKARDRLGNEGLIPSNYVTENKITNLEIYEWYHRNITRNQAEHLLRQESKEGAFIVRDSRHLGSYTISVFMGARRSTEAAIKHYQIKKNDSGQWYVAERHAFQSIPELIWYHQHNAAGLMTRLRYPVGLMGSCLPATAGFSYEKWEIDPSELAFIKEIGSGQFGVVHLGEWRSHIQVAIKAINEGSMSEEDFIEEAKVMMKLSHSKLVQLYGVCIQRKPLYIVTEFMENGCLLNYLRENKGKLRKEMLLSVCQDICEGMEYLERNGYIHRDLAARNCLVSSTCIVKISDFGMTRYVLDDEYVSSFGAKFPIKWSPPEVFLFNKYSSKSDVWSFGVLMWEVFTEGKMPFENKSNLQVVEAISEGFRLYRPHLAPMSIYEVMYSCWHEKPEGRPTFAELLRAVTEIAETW

[8] = molecular target: panel of 255 wild-type kinases (Homo sapiens, UniProt P49137); settings: kinase MAPKAPK2; 1 µmol/L single concentration; read-out: %-inhibition at 1 µmol/L, MAPKAPK2
[9] = molecular target: panel of 255 wild-type kinases (Homo sapiens, UniProt P51451); settings: BLK kinase assay; 1 µmol/L single concentration; read-out: %-inhibition BLK
[10] = molecular target: panel of 255 wild-type kinases (Homo sapiens, UniProt P53350); settings: kinase PLK1; 1 µmol/L single concentration; read-out: %-inhibition at 1 µmol/L, PLK1
[11] = molecular target: panel of 255 wild-type kinases (Homo sapiens, UniProt Q13554); settings: CaMK2β kinase assay; 1 µmol/L single concentration; read-out: %-inhibition CaMK2β
[12] = molecular target: panel of 255 wild-type kinases (Homo sapiens, UniProt Q16620); settings: kinase TRKB; 1 µmol/L single concentration; read-out: %-inhibition at 1 µmol/L, TRKB
[13] = molecular target: panel of 255 wild-type kinases (Homo sapiens, UniProt Q8IY84); settings: NIM1K; 1 µmol/L single concentration; read-out: %-inhibition, NIM1K
[14] = molecular target: panel of 255 wild-type kinases (Homo sapiens, UniProt Q9H2G2); settings: kinase SLK; 1 µmol/L single concentration; read-out: %-inhibition at 1 µmol/L, SLK
[15] = molecular target: T3, panel of 255 wild-type kinases (Homo sapiens, UniProt Q9NWZ3); settings: kinase IRAK4; 1 µmol/L single concentration; read-out: %-inhibition at 1 µmol/L, IRAK4
T3 sequence (Q9NWZ3 1-460): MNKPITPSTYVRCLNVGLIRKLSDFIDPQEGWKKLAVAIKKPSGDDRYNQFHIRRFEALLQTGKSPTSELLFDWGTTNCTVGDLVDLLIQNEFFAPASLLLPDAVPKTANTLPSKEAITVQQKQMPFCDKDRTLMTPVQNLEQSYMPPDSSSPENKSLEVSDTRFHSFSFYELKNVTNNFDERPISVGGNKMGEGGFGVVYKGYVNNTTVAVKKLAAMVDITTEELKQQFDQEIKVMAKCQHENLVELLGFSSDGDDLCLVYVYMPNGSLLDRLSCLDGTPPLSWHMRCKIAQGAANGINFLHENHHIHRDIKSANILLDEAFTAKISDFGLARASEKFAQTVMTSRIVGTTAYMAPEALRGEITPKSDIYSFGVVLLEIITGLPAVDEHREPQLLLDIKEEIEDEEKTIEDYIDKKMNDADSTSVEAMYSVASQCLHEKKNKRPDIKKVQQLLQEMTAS

[16] = AurA kinase assay, read-out: %-inhibition AurA
[17] = AurA/TPX2 kinase assay, read-out: %-inhibition AurA/TPX2

SMILES | inhibition at 1 µM [1] [%] | inhibition at 1 µM [2, 16] [%] | inhibition at 1 µM [2, 17] [%] | inhibition at 1 µM [3] [%] | inhibition at 1 µM [4] [%] | inhibition at 1 µM [5] [%] | inhibition at 1 µM [6] [%] | inhibition at 1 µM [7] [%] | inhibition at 1 µM [8] [%] | inhibition at 1 µM [9] [%] | inhibition at 1 µM [10] [%] | inhibition at 1 µM [11] [%] | inhibition at 1 µM [12] [%] | inhibition at 1 µM [13] [%] | inhibition at 1 µM [14] [%] | inhibition at 1 µM [15] [%]
CO[C@]1(C(=O)N[C@@H](C)c2ccc(-n3cc(F)cn3)nc2)CC[C@H](c2nc(C)cc(Nc3cc(C)[nH]n3)n2)CC1 [pralsetinib] | -1.05 | 73 | 70 | 48 | 8 | 95 | 99 | 41 | -31 | 84 | -2.47 | -0.895 | 94 | 0.843 | 17 | -0.786
Cn1cc(-c2cc3c(N4CCN(c5ncc([C@@](C)(N)c6ccc(F)cc6)cn5)CC4)ncnn3c2)cn1 [avapritinib] | 0.0396 | 4.62 | 10 | 25 | 1.65 | 83 | 96 | 20 | -0.02 | 50 | -1.53 | 0.895 | 48 | 0.427 | 36 | 12
